Results: article PMC5467912, “Asymmetric regulation of quorum-sensing receptors drives autoinducer-specific gene expression programs in Vibrio cholerae” (PLoS Genetics, 2017)
pEC50: −log10 of the molar value. Values joined by “and” are separate entries in the source; they are usually repeats but may differ in a detail not shown here. Equal entries are not always repeated. Where two headings read alike, the source gives them in different places.

Key:
CqsS = biological target: T1, CqsS (Vibrio cholerae serotype O1, UniProt Q9KM66); assay: cell-based; conditions: for Light production: strain WN1102
T1 construct: endogenous in cells; host or cells: V. cholerae WN1102 (ΔcqsA ΔluxQ/pBB1), derived from C6706str2

WT CqsS [1] = tested on: T2, WT CqsS; format: biochemical; conditions: for % Total Phosphorylation: CqsS WT
T2 construct: made in house; host or cells: E. coli C43 (DE3), pET21b; used as inverted membrane vesicles

CqsS D618N = tested on: T3, CqsS D618N; assay: CqsS D618N autophosphorylation in inverted membrane vesicles, 32P (Fig 7A); format: biochemical, Vibrio cholerae
T3 construct: made in house; host or cells: E. coli C43 (DE3), pET21b; used as inverted membrane vesicles

WT CqsS [2] = tested on: T2, WT CqsS; format: cell-based; conditions: Treatment 1uM
CqsS F162A = assay: CqsS-dependent repression of qrr4-gfp, CqsS F162A (Fig 7C); format: cell-based, Vibrio cholerae; conditions: Treatment 1uM; CqsS mutant F162A
CqsS F166L = assay: CqsS-dependent repression of qrr4-gfp, CqsS F166L (Fig 7C); format: cell-based, Vibrio cholerae; conditions: Treatment 1uM; CqsS mutant F166L
CqsS C170Y = assay: CqsS-dependent repression of qrr4-gfp, CqsS C170Y (Fig 7C); format: cell-based, Vibrio cholerae; conditions: Treatment 1uM; CqsS mutant C170Y

O=C(Cc1ccc(-c2ccccc2)cc1)NC1CCCC1 [#10]
Light production (CqsS; Agonist 0.0119209 nM): 9369.4 RLU and 6986.9 RLU and 10942 RLU
Light production (CqsS; Agonist 0.0476837 nM): 9423.1 RLU and 8000 RLU and 9340.1 RLU
Light production (CqsS; Agonist 0.190735 nM): 12692 RLU and 13456 RLU and 11192 RLU
Light production (CqsS; Agonist 0.762939 nM): 11313 RLU and 14104 RLU and 15238 RLU
Light production (CqsS; Agonist 3.05176 nM): 22600 RLU and 24142 RLU and 30238 RLU
Light production (CqsS; Agonist 12.207 nM): 47534 RLU and 48144 RLU and 43294 RLU
Light production (CqsS; Agonist 48.8281 nM): 434632 RLU and 280649 RLU and 290930 RLU
Light production (CqsS; Agonist 195.312 nM): 18756970 RLU and 17581320 RLU and 17098310 RLU
Light production (CqsS; Agonist 781.25 nM): 54801790 RLU and 56977330 RLU and 58542960 RLU
Light production (CqsS; Agonist 3125 nM): 59104040 RLU and 65075830 RLU and 69081300 RLU
Light production (CqsS; Agonist 12500 nM): 60176380 RLU and 64830980 RLU and 65866960 RLU
Light production (CqsS; Agonist 50000 nM): 60204070 RLU and 58034020 RLU and 58318400 RLU
pEC50 (CqsS; light production, reporter strain WN1102, 4 h at 30 °C): 7.21
% Total Phosphorylation (WT CqsS [1]; Agonist 0.1 uM): 86.7558%
% Total Phosphorylation (WT CqsS [1]; Agonist 0.5 uM): 84.62% and 81.5912%
% Total Phosphorylation (WT CqsS [1]; Agonist 1 uM): 70.72%
% Total Phosphorylation (WT CqsS [1]; Agonist 5 uM): 11.17% and 6.892%
% Total Phosphorylation (WT CqsS [1]; Agonist 10 uM): 7.64% and 4.71%
% Total Phosphorylation (WT CqsS [1]; Agonist 20 uM): 4.64% and 6.727%
% Total Phosphorylation (WT CqsS [1]; Agonist 30 uM): 7.41% and 4.674%
% Total Phosphorylation (WT CqsS [1]; Agonist 100 uM): 7.94% and 6.455%
% Total Phosphorylation (WT CqsS [1]; Agonist 200 uM): 9.2% and 11.8727%
inhibition of WT CqsS autophosphorylation (WT CqsS [1]; saturating concentration (Fig 7B)): 90%
% Total Phosphorylation (CqsS D618N; agonist 0.32 uM): 78.2169% and 129.787% and 72.1832% and 83.4166% and 68.7823%
% Total Phosphorylation (CqsS D618N; agonist 0.64 uM): 67.6455% and 78.826% and 54.4942% and 82.803% and 54.4178% and 76.2235%
% Total Phosphorylation (CqsS D618N; agonist 5.12 uM): 12.1256% and 15.8552% and 14.0183% and 14.8493% and 9.564% and 18.5457%
% Total Phosphorylation (CqsS D618N; agonist 6.4 uM): 8.254% and 10.2835% and 8.308% and 5.772% and 5.105% and 9.008%
% Total Phosphorylation (CqsS D618N; agonist 8 uM): 7.787% and 6.051% and 9.483% and 6.182% and 5.718% and 6.335%
Qrr4-GFP/OD600 (WT CqsS [2]): 1697194 and 1657949 and 1642162
Qrr4-GFP/OD600 (CqsS F162A): 18605320 and 18513840 and 18292630
Qrr4-GFP/OD600 (CqsS F166L): 1551288 and 1596042 and 1572105
Qrr4-GFP/OD600 (CqsS C170Y): 18211540 and 17807950 and 19517480
